Source: patent publication US7902373B2 (Pfizer Inc, priority 2006, dated 2011)

Legend:
human recombinant H-PGDS [1] = target: T1, human recombinant H-PGDS (Homo sapiens, UniProt O60760); assay: Fluorescence intensity h-PGDS TBA enzyme assay; assay type: biochemical; details: Examples up to 622 (and 3a, 3b)
[2] = system: A. suum antigen-induced asthmatic response in conscious sheep; assay: In vivo assay, anti-asthmatic effects in a sheep model of asthma; details: i.v. infusion, single dose of 1, 0.3 or 0.1 mg/kg, specific lung resistance (RL)
Description: In vivo Assay—Anti-Asthmatic Effects in a Sheep Model of Asthma A validated model of A. suum antigen-induced asthmatic response in conscious sheep was used to evaluate the pharmacokinetic properties, inhibition of antigen-induced early and late airway bronchoconstriction in the lung by compound (Abraham, W. M., et al., Am Rev Respir Dis 1991; 143:787-796). […] An aerosol of A. suum extract, generated using a disposable medical nebulizer (Raindrop®, Puritan Bennett) was delivered in at a tidal volume of 500 mL and a rate of 20 breaths/min. A compound of Example 2 was delivered by i.v. infusion over the interval t=0-20 min prior to antigen challenge. A single dose of 1, 0.3 or 0.1 mg//kg was evaluated. Baseline and post-drug measurements of specific lung resistance (RL) were obtained immediately prior to challenge (t=30 min) with A. suum antigen, immediately after challenge and then hourly from 1 to 6 h post challenge and on the half-hour from 6.5, 5-8 h post challenge. Measurements of RL were obtained 24 h post challenge, followed by the 24 h post-challenge dose-response curve for carbachol. […] To assess airway responsiveness, the cumulative carbachol dose in breath units (BU) that increased RL 400% over the post-buffer value (i.e., PC400) were calculated from the dose-response curve. […]

human recombinant H-PGDS [3] = target: T1, human recombinant H-PGDS; assay: Slightly modified h-PGDS TBA enzyme assay (Examples 623 onwards); assay type: biochemical
Experimental: Prostaglandin D Synthase (PGDS) converts the substrate prostaglandin H2 (PGH2) to prostaglandin D2.
Examples 623 onwards were tested in a slightly modified assay: The enzyme assay (30 μls during biological process) contained 100 mM Trizma pH 8.0, 100 μM MgCl2, 0.1 mg/ml IgG Rabbit serum, 5.0 μM PGH2 (Cayman; ethanol solution, #17020), 2.5 mM L-Glutathione (Sigma; reduced form #G4251), 1:40,000 human recombinant H-PGDS (from 1 mg/ml), 0.5% DMSO and inhibitor (varying concentration). 3 μls of diluted inhibitor (dissolved in DMSO) was plated into a 384-well assay plate followed by a 24 μl addition of an enzyme solution containing h-PGDS, Trizma, MgCl2, IgG and L-Glutathione. After pre-incubation of inhibitor and enzyme solution for 10 minutes at room temperature, the reaction was initiated with a 3 μl addition of substrate solution in 10 mM HCl. The reaction was terminated after 40 second by the addition of 3 μl stop buffer containing FeCl2 and citric acid. After addition of 45 μl of TBA plates were heated for one hour in a 70° C. oven. Plates were cooled at room temperature overnight and read on a plate reader the next day with excitation @ 530 nm and emission @ 560 nm. IC50's of inhibitors were calculated with a 4-parameter fit using 11 inhibitor concentrations in duplicate with 1/2 log serial dilutions. […] The highest inhibitor concentration tested was typically 10 μM.

T1 sequence (O60760 whole entry, the tested form may be a part): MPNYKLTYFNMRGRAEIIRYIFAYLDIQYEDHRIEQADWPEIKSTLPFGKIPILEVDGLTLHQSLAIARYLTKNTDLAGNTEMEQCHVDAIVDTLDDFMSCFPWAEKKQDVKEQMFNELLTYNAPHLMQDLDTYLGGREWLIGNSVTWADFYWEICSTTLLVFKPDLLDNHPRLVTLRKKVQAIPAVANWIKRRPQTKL

Row | SMILES | IC50 (human recombinant H-PGDS [1]) [µM] | early airway response (0-2 h after allergen challenge) [2] | late airway response (4-8 h after antigen challenge) inhibited [2] | IC50 (human recombinant H-PGDS [3]) [µM]
1 | O=C(NC1CCN(CC(F)(F)F)CC1)c1ccc(-c2cccc(F)c2)nc1 [Example 2, 6-(3-Fluorophenyl)-N-(1-(2,2,2-trifluoroethyl)piperidin-4-yl)nicotinamide] | 0.000852 | not reduced | approximately 60% | 
2 | CC(=O)N1C[C@@H]2[C@H](C1)[C@H]2NC(=O)c1ccc(-c2cccc(F)c2)nc1 [Example 654, N-[(1R,5S,6s)-3-acetyl-3-azabicyclo[3.1.0]hex-6-yl]-6-(3-fluorophenyl)nicotinamide] |  |  |  | 0.0338
3 | CCCN1C[C@@H]2[C@H](C1)[C@H]2NC(=O)c1ccc(-c2cccc(F)c2)nc1 [Example 655] |  |  |  | 0.0668
